Measurements as given in PubChem BioAssay AID787 (PCMD, 2007).
The source made the active and inactive calls. No rule for the calls is given here.

target: Complement C1s subcomponent (Homo sapiens) (UniProt P09871); test: C1s inhibitor IC50 values, dose response, biochemical (AID 787); settings: purified C1s enzyme, fluorogenic substrate, FU read-out
Sequence (P09871 16-437 limits assumed): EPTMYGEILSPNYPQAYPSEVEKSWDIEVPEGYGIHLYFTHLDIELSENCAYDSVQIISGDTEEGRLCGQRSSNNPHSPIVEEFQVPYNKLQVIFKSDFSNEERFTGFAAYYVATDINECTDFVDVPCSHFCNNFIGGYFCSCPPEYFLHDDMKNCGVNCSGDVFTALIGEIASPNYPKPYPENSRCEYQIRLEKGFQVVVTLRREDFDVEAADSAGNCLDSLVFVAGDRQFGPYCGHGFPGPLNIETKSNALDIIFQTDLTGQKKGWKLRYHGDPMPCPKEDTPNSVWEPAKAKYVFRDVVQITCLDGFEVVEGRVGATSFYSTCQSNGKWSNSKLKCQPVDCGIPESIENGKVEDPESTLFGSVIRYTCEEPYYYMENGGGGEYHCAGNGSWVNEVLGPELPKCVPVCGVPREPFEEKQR
Sequence (P09871 438-688 limits assumed): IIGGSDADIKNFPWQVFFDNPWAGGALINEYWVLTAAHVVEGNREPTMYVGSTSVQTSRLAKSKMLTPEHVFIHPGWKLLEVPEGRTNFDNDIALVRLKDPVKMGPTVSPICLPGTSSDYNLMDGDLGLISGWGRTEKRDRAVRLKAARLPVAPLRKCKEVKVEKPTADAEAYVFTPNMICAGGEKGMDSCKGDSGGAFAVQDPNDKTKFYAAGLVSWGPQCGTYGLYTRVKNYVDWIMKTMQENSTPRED

| IC50 | SMILES |
| --- | --- |
| > 50 µM (inactive) | COc1cccc(C2=CC(c3cccc(OC)c3OC)n3nnnc3N2)c1 (centres undefined) |
| > 50 µM (inactive) | COc1ccc(NC(=O)CSC2=C(C#N)C(c3ccco3)C3=C(CCCC3=O)N2)c(OC)c1 (centres undefined) |
| > 50 µM (inactive) | Cc1cccc(COc2ccc(/C(O)=C3\C(=O)C(=O)N(CCN(C)C)C3c3ccncc3)cc2)c1 (centres undefined) |
| > 50 µM (inactive) | CCOc1ccc(N2C(=O)CC(N3CCN(c4ccccc4F)CC3)C2=O)cc1 (centres undefined) |
| > 50 µM (inactive) | COC(=O)Cc1[nH]nc2c1C1(C(=O)N(Cc3ccccc3)c3ccccc31)C(C#N)=C(N)O2 (centres undefined) |
| > 50 µM (inactive) | O=C(Oc1ccc(Cl)cc1N1C(=O)CCC1=O)c1ccco1 |
| > 50 µM (inactive) | O=C1CCCC2=C1C1(CCCCC1)N=C(Nc1nc3ccccc3o1)N2 |
| > 50 µM (inactive) | CCOC(=O)N1CC=C2C(C#N)=C(N)C(C#N)(C#N)[C@H](c3ccccc3OCC)[C@H]2C1 |
| > 50 µM (inactive) | O=C1CCCC(O)=C1C=NCCc1ccccc1 |
